Measured values published in PubChem BioAssay AID1918948 (Molecular Pharmacology Branch, DTP, NCI, 2023).
pIC50: −log10 of the molar value.

Tested on: K-562 leukemia growth, % test/control
Experiment: Anticancer human tumor K-562 cell line growth inhibition;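 further: spheroids exposed to compounds for 7 days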;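 on viability, T/C: 100% = DMSO vehicle wells and lower values mean fewer viable cells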
Conditions: spheroids with HUVEC and MSC; for pIC50: curve of first compound; for viability, T/C: stronger effect = lower value
How it was run: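 Complex spheroids of tumor cells with HUVEC and human MSCs, exposed to iadademstat combined with other agents. Each agent tested in half-log steps from near clinical Cmax (else 10 microM top), DMSO ≤0.25%.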

## Nc1ncn(C2CC(O)C(CO)S2)c(=O)n1 (stereo not given) + NC1CC1c1ccc(-c2cccc(O)c2)cc1
Second compound 0.1 µM
  pIC50: 7.04
Second compound 0.316 µM
  pIC50: 7.07
Second compound 1 µM
  pIC50: 7.10
Second compound 3.16 µM
  pIC50: 7.11
Second compound 10 µM
  pIC50: 7.25
Second compound 0.1 µM, first compound 0.000949 µM
  viability, T/C: 110%
Second compound 0.1 µM, first compound 0.003 µM
  viability, T/C: 108%
Second compound 0.1 µM, first compound 0.00949 µM
  viability, T/C: 107%
Second compound 0.1 µM, first compound 0.03 µM
  viability, T/C: 93.2%
Second compound 0.1 µM, first compound 0.0949 µM
  viability, T/C: 48.4%
Second compound 0.1 µM, first compound 0.3 µM
  viability, T/C: 17.1%
Second compound 0.316 µM, first compound 0.000949 µM
  viability, T/C: 103%
Second compound 0.316 µM, first compound 0.003 µM
  viability, T/C: 104%
Second compound 0.316 µM, first compound 0.00949 µM
  viability, T/C: 103%
Second compound 0.316 µM, first compound 0.03 µM
  viability, T/C: 90.3%
Second compound 0.316 µM, first compound 0.0949 µM
  viability, T/C: 45.5%
Second compound 0.316 µM, first compound 0.3 µM
  viability, T/C: 16.3%
Second compound 1 µM, first compound 0.000949 µM
  viability, T/C: 102%
Second compound 1 µM, first compound 0.003 µM
  viability, T/C: 103%
Second compound 1 µM, first compound 0.00949 µM
  viability, T/C: 104%
Second compound 1 µM, first compound 0.03 µM
  viability, T/C: 88%
Second compound 1 µM, first compound 0.0949 µM
  viability, T/C: 42.9%
Second compound 1 µM, first compound 0.3 µM
  viability, T/C: 15.6%
Second compound 3.16 µM, first compound 0.000949 µM
  viability, T/C: 98.5%
Second compound 3.16 µM, first compound 0.003 µM
  viability, T/C: 105%
Second compound 3.16 µM, first compound 0.00949 µM
  viability, T/C: 102%
Second compound 3.16 µM, first compound 0.03 µM
  viability, T/C: 85.6%
Second compound 3.16 µM, first compound 0.0949 µM
  viability, T/C: 42.1%
Second compound 3.16 µM, first compound 0.3 µM
  viability, T/C: 16.3%
Second compound 10 µM, first compound 0.000949 µM
  viability, T/C: 98.8%
Second compound 10 µM, first compound 0.003 µM
  viability, T/C: 101%
Second compound 10 µM, first compound 0.00949 µM
  viability, T/C: 98%
Second compound 10 µM, first compound 0.03 µM
  viability, T/C: 72.6%
Second compound 10 µM, first compound 0.0949 µM
  viability, T/C: 30.5%
Second compound 10 µM, first compound 0.3 µM
  viability, T/C: 12.3%
